Source: patent US20260256792A1, “TREATMENT OF CHRONIC SPONTANEOUS URTICARIA BY ADMINISTERING (R)-2-[3-[4-AMINO-3-(2-FLUORO-4-PHENOXY-PHENYL)PYRAZOLO[3,4-D]PYRIMIDIN-1-YL]PIPERIDINE-1-CARBONYL]-4-METHYL-4-[4-(OXETAN-3-YL)PIPERAZIN-1-YL]PENT-2-ENENITRILE” (priority 2023, published 2026)

System: moderate-to-severe chronic spontaneous urticaria (CSU)
Assay: Phase 2 CSU study: urticaria activity score over 7 days (UAS7)
Assay type: in vivo, human
Design: key to UAS7 Median / UAS7 Change from baseline Median / UAS7 change from baseline, Q1 / UAS7 change from baseline, Q3 / UAS7 change from baseline, Max / UAS7 Change from baseline LS Mean (SE): UAS7 points; daily UAS score ranges 0–6 points/day, over 7 days
Description: The study comprises a 12 week, randomized, double-blind, placebo-controlled, multi-center, dose-ranging efficacy and safety phase, followed by a 40 week open label extension (OLE) phase (see FIG. 1). The study consists of three phases and an optional OLE phase. […] Clinically, CSU is characterized by the spontaneous and recurrent appearance of pruritic hives. The proposed primary endpoints were the UAS7 at Week 12 in EU and EU reference countries and the ISS7 in the US. Regardless of where a participant was from, all assessments were the same. The UAS7 score is a composite score containing both the HSS7 and the ISS7. This allowed a global assessment of the two key components of urticaria: hives and itch. […] The UAS is a validated PRO measure. […] The daily UAS scores range from 0 to 6 point/day. […] Patients were to complete the UAS using the e-diary. […] The following secondary endpoints were to be analyzed using the same approach as for the primary endpoint: • Change from baseline in UAS7 at Week 4 • Change from baseline in UAS7 at Week 12 (for US and US reference countries) • Change from baseline in ISS7 at Week 12 (except US and US reference countries) • Change from baseline in HSS7 at Week 12 The following responder secondary endpoints were to be analyzed using the Cochran-Mantel-Haenszel test adjusted by region: • Proportion of participants with UAS7<6 at Week 12 • Proportion of participants with UAS7=0 at Week 12 Participants who received selected prohibited medications and/or rescue medications were to be considered as non-responders for time points after the medication usage. For other participants, all available data including those collected during the off-treatment period were to be used to determine the responder/non-responder status. Missing data were to be considered as non-responders.

[1] = ITT Population, 400 mg TID, Week 1
[2] = ITT Population, 400 mg TID, Week 12
[3] = ITT population, 400 mg BID, Week 1
[4] = ITT population, 400 mg BID, Week 3
[5] = ITT population, 400 mg BID, Week 4
[6] = ITT population, 400 mg BID, Week 5
[7] = ITT population, 400 mg BID, Week 6
[8] = ITT population, 400 mg BID, Week 7
[9] = ITT population, 400 mg BID, Week 8
[10] = ITT population, 400 mg BID, Week 9
[11] = ITT population, 400 mg BID, Week 10
[12] = ITT population, 400 mg BID, Week 11
[13] = ITT population, 400 mg BID, Week 12
[14] = ITT population, 400 mg QPM, Week 1

SMILES: CC(C)(C=C(C#N)C(=O)N1CCC[C@@H](n2nc(-c3ccc(Oc4ccccc4)cc3F)c3c(N)ncnc32)C1)N1CCN(C2COC2)CC1 [rilzabrutinib, (R)-2-[3-[4-amino-3-(2-fluoro-4-phenoxy-phenyl)pyrazolo[3,4-d]pyrimidin-1-yl]piperidine-1-carbonyl]-4-methyl-4-[4-(oxetan-3-yl)piperazin-1-yl]pent-2-enenitrile]
- UAS7 Post-baseline Mean (SD) (ITT Population, 400 mg QPM, Week 5): 20.58 (9.05)
- UAS7 % Change difference for rilzabrutinib vs. placebo LS Mean (95% CI) [1]: −29.94%
- UAS7 % Change from baseline LS Mean (SE) [1]: −40.18%
- UAS7 Change from baseline LS Mean (SE) [1]: −12.72
- UAS7 Post-baseline Mean (SD) [1]: 16.95 (10.13)
- UAS7 % Change difference for rilzabrutinib vs. placebo LS Mean (95% CI) [2]: −26.23%
- UAS7 % Change from baseline LS Mean (SE) [2]: −59.16%
- UAS7 Change difference for rilzabrutinib vs. placebo LS Mean (95% CI) [2]: −6.76
- UAS7 Change from baseline LS Mean (SE) [2]: −17.95
- UAS7 % Change difference for rilzabrutinib vs. placebo LS Mean (95% CI) [3]: −23.93%
- UAS7 % Change from baseline LS Mean (SE) [3]: −34.18%
- UAS7 Change difference for rilzabrutinib vs. placebo LS Mean (95% CI) [3]: −6.18
- UAS7 Change from baseline LS Mean (SE) [3]: −10.01
- UAS7 Post-baseline Mean (SD) [3]: 19.98 (11.35)
- UAS7 % Change difference for rilzabrutinib vs. placebo LS Mean (95% CI) [4]: −18.34%
- UAS7 % Change from baseline LS Mean (SE) [4]: −39.97%
- UAS7 Change difference for rilzabrutinib vs. placebo LS Mean (95% CI) [4]: −4.74
- UAS7 Change from baseline LS Mean (SE) [4]: −12.33
- UAS7 Post-baseline Mean (SD) [4]: 17.63 (12.02)
- UAS7 % Change difference for rilzabrutinib vs. placebo LS Mean (95% CI) [5]: −20.76%
- UAS7 % Change from baseline LS Mean (SE) [5]: −44.02%
- UAS7 Change difference for rilzabrutinib vs. placebo LS Mean (95% CI) [5]: −5.34
- UAS7 Change from baseline LS Mean (SE) [5]: −13.41
- UAS7 Post-baseline Mean (SD) [5]: 15.62 (12.20)
- UAS7 % Change difference for rilzabrutinib vs. placebo LS Mean (95% CI) [6]: −10.88%
- UAS7 % Change from baseline LS Mean (SE) [6]: −42.67%
- UAS7 Change difference for rilzabrutinib vs. placebo LS Mean (95% CI) [6]: −2.61
- UAS7 Change from baseline LS Mean (SE) [6]: −12.81
- UAS7 Post-baseline Mean (SD) [6]: 16.44 (13.70)
- UAS7 % Change difference for rilzabrutinib vs. placebo LS Mean (95% CI) [7]: −14.76%
- UAS7 % Change from baseline LS Mean (SE) [7]: −41.66%
- UAS7 Change difference for rilzabrutinib vs. placebo LS Mean (95% CI) [7]: −3.64
- UAS7 Change from baseline LS Mean (SE) [7]: −12.78
- UAS7 Post-baseline Mean (SD) [7]: 16.51 (12.98)
- UAS7 % Change difference for rilzabrutinib vs. placebo LS Mean (95% CI) [8]: −20.46%
- UAS7 % Change from baseline LS Mean (SE) [8]: −47.80%
- UAS7 Change difference for rilzabrutinib vs. placebo LS Mean (95% CI) [8]: −5.50
- UAS7 Change from baseline LS Mean (SE) [8]: −14.56
- UAS7 Post-baseline Mean (SD) [8]: 15.04 (12.35)
- UAS7 % Change difference for rilzabrutinib vs. placebo LS Mean (95% CI) [9]: −21.40%
- UAS7 % Change from baseline LS Mean (SE) [9]: −53.24%
- UAS7 Change difference for rilzabrutinib vs. placebo LS Mean (95% CI) [9]: −5.61
- UAS7 Change from baseline LS Mean (SE) [9]: −15.96
- UAS7 Post-baseline Mean (SD) [9]: 13.59 (13.23)
- UAS7 % Change difference for rilzabrutinib vs. placebo LS Mean (95% CI) [10]: −24.16%
- UAS7 % Change from baseline LS Mean (SE) [10]: −52.21%
- UAS7 Change difference for rilzabrutinib vs. placebo LS Mean (95% CI) [10]: −5.85
- UAS7 Change from baseline LS Mean (SE) [10]: −15.45
- UAS7 Post-baseline Mean (SD) [10]: 14.13 (14.43)
- UAS7 % Change difference for rilzabrutinib vs. placebo LS Mean (95% CI) [11]: −17.60%
- UAS7 % Change from baseline LS Mean (SE) [11]: −51.13%
- UAS7 Change difference for rilzabrutinib vs. placebo LS Mean (95% CI) [11]: −4.46
- UAS7 Change from baseline LS Mean (SE) [11]: −15.36
- UAS7 Post-baseline Mean (SD) [11]: 14.82 (14.24)
- UAS7 % Change difference for rilzabrutinib vs. placebo LS Mean (95% CI) [12]: −19.11%
- UAS7 % Change from baseline LS Mean (SE) [12]: −49.87%
- UAS7 Change difference for rilzabrutinib vs. placebo LS Mean (95% CI) [12]: −4.55
- UAS7 Change from baseline LS Mean (SE) [12]: −14.95
- UAS7 Post-baseline Mean (SD) [12]: 14.55 (13.86)
- UAS7 % Change difference for rilzabrutinib vs. placebo LS Mean (95% CI) [13]: −16.41%
- UAS7 % Change from baseline LS Mean (SE) [13]: −49.34%
- UAS7 Change difference for rilzabrutinib vs. placebo LS Mean (95% CI) [13]: −3.62
- UAS7 Change from baseline LS Mean (SE) [13]: −14.82
- UAS7 Post-baseline Mean (SD) [13]: 14.70 (14.29)
- UAS7 % Change difference for rilzabrutinib vs. placebo LS Mean (95% CI) [14]: −12.22%
- UAS7 % Change from baseline LS Mean (SE) [14]: −22.47%
